PubChem BioAssay (NCI)
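These data come from cells grown in 96-well plates and exposed to compound for 48 hours at five concentrations. Abbreviation: GI50, concentration required for 50% inhibition of growth. TGI: total growth inhibition.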

How the values were obtained:
Experiment in all cases: DTP human tumour cell line panel, 48 h
RPMI-8226 leukemia = system: RPMI-8226 leukemia
SF-539 CNS = system: SF-539 CNS
ACHN renal = system: ACHN renal
MOLT-4 leukemia = system: MOLT-4 leukemia
TK-10 renal = system: TK-10 renal
COLO 205 colon = system: COLO 205 colon
KM12 colon = system: KM12 colon
U251 CNS = system: U251 CNS
A498 renal = system: A498 renal
SR leukemia = system: SR leukemia

Compound | GI50 (RPMI-8226 leukemia) | TGI (RPMI-8226 leukemia) | GI50 (SF-539 CNS) | TGI (SF-539 CNS) | GI50 (ACHN renal) | TGI (ACHN renal) | GI50 (MOLT-4 leukemia) | TGI (MOLT-4 leukemia) | GI50 (TK-10 renal) | TGI (TK-10 renal) | GI50 (COLO 205 colon) | TGI (COLO 205 colon) | GI50 (KM12 colon) | TGI (KM12 colon) | GI50 (U251 CNS) | TGI (U251 CNS) | GI50 (A498 renal) | TGI (A498 renal) | GI50 (SR leukemia) | TGI (SR leukemia)
CC(C)(C)c1nc(-c2cccc(NS(=O)(=O)c3c(F)cccc3F)c2F)c(-c2ccnc(N)n2)s1 | 24.1 µM | 97 µM | 39.2 µM | > 100 µM | 0.211 µM | > 100 µM | 26.5 µM | > 100 µM | 31.8 µM | > 100 µM | < 0.01 µM | > 100 µM | 23.8 µM | > 92.4 µM | 45.5 µM | > 100 µM |  |  |  | 
O=C1Nc2ccccc2/C1=C/c1cn(CC(O)Cn2cc(/C=C3\C(=O)Nc4ccccc43)c3ccccc32)c2ccccc12 (configuration not stated) | 2.1 µM | 5.41 µM | 1.55 µM | 3.11 µM | 1.63 µM | 3.91 µM | 2.58 µM | 7.42 µM | 2.68 µM | 5.46 µM |  |  |  |  | 1.52 µM | 2.92 µM | 2.18 µM | 4.08 µM |  | 
O=c1[nH]c(=O)n(C2CC(O)C(CO)O2)cc1COCC(F)(F)F (configuration not stated) |  | > 100 µM |  | > 100 µM |  | > 100 µM |  | > 100 µM |  | > 100 µM |  | > 100 µM |  | > 100 µM |  | > 100 µM |  | > 100 µM |  | 
COc1cc(Nc2ncnc(Nc3ccc4c(n3)NC(=O)C(C)(C)O4)n2)cc(OC)c1OC |  |  | 0.23 µM | 0.673 µM | 0.16 µM | 23.7 µM | 5.24 µM | > 100 µM | 0.457 µM | > 100 µM | 0.829 µM | > 100 µM | 0.395 µM | > 100 µM | 1.5 µM | > 100 µM | 0.031 µM | 0.29 µM | 2.24 µM | > 100 µM
CCC[CH2][Sn]([CH2]CCC)([CH2]CCC)[O]C(=O)C(OC)c1ccccc1 (configuration not stated) | 0.0206 µM | 0.306 µM | 0.134 µM | 0.268 µM | 0.129 µM | 0.257 µM |  | 0.835 µM | 0.263 µM | 0.984 µM | 0.134 µM | 0.264 µM | 0.052 µM | 0.178 µM | 0.106 µM | 0.225 µM | 0.123 µM | 0.263 µM |  | 
C=C(CO)CC(/C=C(\C)CC/C=C(\C)CCl)OC(C)=O (configuration not stated) |  | > 100 µM |  | > 100 µM |  | > 100 µM |  | > 100 µM |  | > 100 µM |  | > 100 µM |  | > 100 µM |  | > 100 µM |  | > 100 µM |  | 
O/N=C\C(=Nc1ccc(Cc2ccc(N=C(/C=N\O)NO)cc2)cc1)NO |  | > 100 µM |  | > 100 µM |  | > 100 µM |  | > 100 µM |  | > 100 µM |  | > 100 µM |  | > 100 µM |  | > 100 µM |  | > 100 µM |  | 
C=Cc1c(C)c2cc3[nH]c(cc4nc(cc5nc(cc1[nH]2)C(C)=C5CCC(=O)N(CC)CC)C(CCC(=O)N(CC)CC)=C4C)c(C)c3C=C |  |  |  | > 100 µM |  | > 100 µM |  | > 100 µM |  | > 100 µM |  |  |  | > 100 µM |  | > 100 µM |  |  |  | > 100 µM
COc1cc2c(c(OC)c1OC)-c1ccc(SC)c(=O)cc1C(CC(=O)Oc1cccc(F)c1)C2 (configuration not stated) |  | 6.19 µM |  | 0.387 µM |  | > 100 µM |  | > 55.2 µM |  | > 100 µM |  | 0.555 µM |  | 1.14 µM |  | 0.85 µM |  |  |  | 1.47 µM
CCOC(=O)C1=C(C(=O)OCC)C2(c3ccccc3)N(O1)c1ccccc1C2(C)C (configuration not stated) |  | 57.3 µM |  | > 100 µM |  |  |  | > 100 µM |  | > 100 µM |  | > 100 µM |  | > 100 µM |  | > 100 µM |  | > 100 µM |  | 
COc1ccc(-c2nc(N)c(C#N)c3c2CCOc2c-3ccc3ccccc23)cc1 |  |  | 21.2 µM | 52.6 µM | 10.1 µM | 22.6 µM | > 100 µM | > 100 µM | 21.5 µM | 53.2 µM | 7.61 µM | > 100 µM | 42.7 µM | > 100 µM | 14 µM | 34.4 µM |  |  |  | 
Cc1ccc(O)c(NC2=C(Cl)C(=O)N(Cc3ccccc3)C2=O)c1 | 7.7 µM | 36.6 µM |  |  | 32.4 µM | > 100 µM | 1.55 µM | 74.2 µM | 38.3 µM | > 100 µM | 28.4 µM | > 100 µM | 40.7 µM | > 100 µM | 19.8 µM | 43.3 µM |  |  | 18.3 µM | 84.9 µM
COc1cc(NC(C)CCCNC(C)C)c2ncccc2c1OC (configuration not stated) |  |  | > 100 µM | > 100 µM | > 100 µM | > 100 µM | > 100 µM | > 100 µM |  |  | 14 µM | 39.1 µM | > 100 µM | > 100 µM | > 100 µM | > 100 µM | 0.416 µM | > 100 µM | 70.8 µM | > 100 µM
C[C@H](NC(=O)c1c(C(F)F)nn(C)c1Oc1cccc(C(F)(F)F)c1)c1ccc(C(=O)O)cc1 | > 100 µM | > 100 µM | > 100 µM | > 100 µM | > 100 µM | > 100 µM | > 100 µM | > 100 µM | > 100 µM | > 100 µM | > 100 µM | > 100 µM | > 100 µM | > 100 µM | > 100 µM | > 100 µM | > 100 µM | > 100 µM |  | 
Cc1ccc(C2C(Cl)C(=O)N2NC(=O)c2ccc(N)cc2)cc1 (configuration not stated) |  | 78.9 µM |  | 41.6 µM |  | > 100 µM |  | 35.3 µM |  | > 100 µM |  | 44.6 µM |  | > 100 µM |  | 28.3 µM |  | 56.4 µM |  | 
CCC[CH2][Sn]([CH2]CCC)([O]C(=O)c1cccc(F)c1F)[O]C(=O)c1cccc(F)c1F |  |  | 1.27 µM | 2.56 µM | 1.28 µM | 2.55 µM | 0.336 µM | 2.04 µM | 1.72 µM | 3.11 µM | 0.962 µM | 2.13 µM | 1.52 µM | 2.85 µM | 0.675 µM | 1.93 µM | 1.15 µM | 2.39 µM | 0.371 µM | 3.49 µM
